# Reference: ChEMBL document CHEMBL3045700, “Synthesis and in vitro and in vivo antimalarial activity of novel 4-anilinoquinoline Mannich base derivatives” (2011)
# Calls of active or inactive are those of the source. The calls are words filed in the database; no cut-off is given here.
# Key:
# Plasmodium falciparum [1] = assay: Antimalarial activity against chloroquine-sensitive Plasmodium falciparum RKL-2 assessed as dead rings and schizonts at 100 ug/ml after 36 to 40 hr incubation by Giemsa staining; assay type: functional
# Plasmodium falciparum [2] = assay: Antimalarial activity against chloroquine-sensitive Plasmodium falciparum 3D7 assessed as inhibition of schizont maturation at 50 ug/ml after 36 to 40 hr incubation by Giemsa staining; assay type: functional
# Plasmodium yoelii [3] = assay: Antimalarial activity against chloroquine-resistant Plasmodium yoelii infected Swiss mouse assessed as mouse showing nil parasitemia at 500 mg/kg, po qd for 4 days measured on day 10; assay type: functional, organism-based; design: dose 500 mg/kg
# Plasmodium yoelii [4] = assay: Antimalarial activity against chloroquine-resistant Plasmodium yoelii infected Swiss mouse assessed as mouse showing nil parasitemia at 500 mg/kg, po qd for 4 days measured on day 7; assay type: functional, organism-based; design: dose 500 mg/kg
# Plasmodium yoelii [5] = assay: Antimalarial activity against chloroquine-resistant Plasmodium yoelii infected Swiss mouse assessed as mouse showing nil parasitemia at 500 mg/kg, po qd for 4 days measured on day 4; assay type: functional, organism-based; design: dose 500 mg/kg
# Plasmodium falciparum [6] = assay: Antimalarial activity against chloroquine-sensitive Plasmodium falciparum 3D7 assessed as inhibition of schizont maturation at 0.5 ug/ml after 36 to 40 hr incubation by Giemsa staining; assay type: functional
# Plasmodium falciparum [7] = assay: Antimalarial activity against chloroquine-sensitive Plasmodium falciparum 3D7 assessed as inhibition of schizont maturation at 10 ug/ml after 36 to 40 hr incubation by Giemsa staining; assay type: functional
# Plasmodium falciparum [8] = assay: Antimalarial activity against chloroquine-sensitive Plasmodium falciparum 3D7 assessed as inhibition of schizont maturation at 2 ug/ml after 36 to 40 hr incubation by Giemsa staining; assay type: functional
# Plasmodium falciparum [9] = assay: Antimalarial activity against chloroquine-sensitive Plasmodium falciparum 3D7 assessed as inhibition of schizont maturation at 0.031 ug/ml after 36 to 40 hr incubation by Giemsa staining; assay type: functional
# Plasmodium falciparum [10] = assay: Antimalarial activity against chloroquine-sensitive Plasmodium falciparum 3D7 assessed as inhibition of schizont maturation at 0.125 ug/ml after 36 to 40 hr incubation by Giemsa staining; assay type: functional
# Plasmodium falciparum [11] = assay: Antimalarial activity against chloroquine-sensitive Plasmodium falciparum 3D7 assessed as inhibition of schizont maturation at 100 ug/ml after 36 to 40 hr incubation by Giemsa staining; assay type: functional
# Plasmodium falciparum [12] = assay: Antimalarial activity against chloroquine-sensitive Plasmodium falciparum 3D7 assessed as inhibition of schizont maturation at 0.063 ug/ml after 36 to 40 hr incubation by Giemsa staining; assay type: functional
# Plasmodium falciparum [13] = assay: Antimalarial activity against chloroquine-sensitive Plasmodium falciparum 3D7 assessed as inhibition of schizont maturation at 1 ug/ml after 36 to 40 hr incubation by Giemsa staining; assay type: functional
# Plasmodium yoelii [14] = assay: Antimalarial activity against chloroquine-resistant Plasmodium yoelii infected Swiss mouse assessed as suppression parasitemia at 500 mg/kg, po qd for 4 days; assay type: functional
# Plasmodium falciparum [15] = assay: Antimalarial activity against chloroquine-sensitive Plasmodium falciparum 3D7 assessed as inhibition of schizont maturation at 0.25 ug/ml after 36 to 40 hr incubation by Giemsa staining; assay type: functional
# Plasmodium falciparum [16] = assay: Antimalarial activity against chloroquine-sensitive Plasmodium falciparum 3D7 assessed as inhibition of schizont maturation at 0.0625 ug/ml after 36 to 40 hr incubation by Giemsa staining; assay type: functional
# Plasmodium falciparum [17] = assay: Antimalarial activity against chloroquine-sensitive Plasmodium falciparum RKL-2 assessed as dead rings and schizonts at 0.4 ug/ml after 36 to 40 hr incubation by Giemsa staining; assay type: functional
compound,measurement,setting,value
CC(C)N(Cc1cc(Nc2ccnc3cc(Cl)ccc23)ccc1O)C(C)C,Activity,Plasmodium falciparum [1],3%
Oc1ccc(Nc2ccnc3cc(Cl)ccc23)cc1CN1CCOCC1,inhibition at 50 µg/mL,Plasmodium falciparum [2],100%
same,Activity,Plasmodium yoelii [3],Active
same,Activity,Plasmodium yoelii [4],Active
same,Activity,Plasmodium yoelii [5],Active
same,inhibition at 0.5 µg/mL,Plasmodium falciparum [6],100%
same,inhibition at 10 µg/mL,Plasmodium falciparum [7],100%
same,inhibition at 2 µg/mL,Plasmodium falciparum [8],100%
same,inhibition at 0.031 µg/mL,Plasmodium falciparum [9],73.3%
same,inhibition at 0.125 µg/mL,Plasmodium falciparum [10],100%
same,inhibition at 100 µg/mL,Plasmodium falciparum [11],100%
same,inhibition at 0.063 µg/mL,Plasmodium falciparum [12],100%
same,inhibition at 1 µg/mL,Plasmodium falciparum [13],100%
same,Activity,Plasmodium yoelii [14],100%
same,inhibition at 0.25 µg/mL,Plasmodium falciparum [15],100%
CCN(CC)CCCC(C)Nc1ccnc2cc(Cl)ccc12 (stereo not given) [CHLOROQUINE],inhibition at 0.0625 µg/mL,Plasmodium falciparum [16],88.4%
same,inhibition at 0.5 µg/mL,Plasmodium falciparum [6],100%
same,Activity,Plasmodium falciparum [17],54%
same,inhibition at 0.125 µg/mL,Plasmodium falciparum [10],97.1%
same,inhibition at 0.25 µg/mL,Plasmodium falciparum [15],100%
Oc1ccc(Nc2ccnc3cc(Cl)ccc23)cc1CN(c1ccccc1)c1ccccc1,inhibition at 50 µg/mL,Plasmodium falciparum [2],0.05%
same,inhibition at 100 µg/mL,Plasmodium falciparum [11],38.9%
CCCCN(CCCC)Cc1cc(Nc2ccnc3cc(Cl)ccc23)ccc1O,Activity,Plasmodium falciparum [1],5%
CCCCNCc1cc(Nc2ccnc3cc(Cl)ccc23)ccc1O,inhibition at 50 µg/mL,Plasmodium falciparum [2],100%
same,inhibition at 10 µg/mL,Plasmodium falciparum [7],100%
same,inhibition at 2 µg/mL,Plasmodium falciparum [8],82.2%
same,inhibition at 100 µg/mL,Plasmodium falciparum [11],100%
same,inhibition at 1 µg/mL,Plasmodium falciparum [13],71.1%
CCCNCc1cc(Nc2ccnc3cc(Cl)ccc23)ccc1O,Activity,Plasmodium falciparum [1],6.5%
CC(C)NCc1cc(Nc2ccnc3cc(Cl)ccc23)ccc1O,Activity,Plasmodium falciparum [1],6.5%
